Measured values as given in patent publication US20180074045A1, “SYSTEM AND METHOD FOR HIGH THROUGHPUT SCREENING OF CANCER CELLS” (CANNABICS PHARMACEUTICALS INC, priority 2015, published 2018).

Tested on: U87MG glioblastoma cells
Assay: Cell viability imaging, extracts with various THC to CBD ratios
Type: cell-based, human
Conditions: extracts with various THC to CBD ratio, adjusted to 5 μM THC, 24 hours, 96-well; FIG. 6
Description: Cells were harvested three days before exposure and seeded (about 50,000-200,000 cells/well) into a 24-well microplate. The medium was replaced in respective culture medium containing 0.5% FBS, and vehicle (DMSO) or cannabis extracts (1-10 μg/ml) were added to the medium for 24-48 hours in duplicates.
The effect of cannabinoid compounds on cell viability was measured using high-content screening analysis. For example, differentiation of subpopulations of cells within the same well was analysed by distinguishing: live versus necrotic cells, early apoptotic cells and late apoptotic cells.
Cells were imaged in ImageXpress micro (see FIG. 2), and analyzed using MetaXpress and the Cell Cycle module.
Reference is now made to FIG. 6 showing images of glioblastoma cell lines treated with selected cannabis extracts comprising various THC to CBD ratio. In this study, 10,000 U87MG glioblastoma cells were plated into a 96-well microplate and treated with vehicle (DMSO) or cannabis extracts. It is noted that the extracts were delectated to reach 5 μM THC. Cells were imaged after 24 hours using the ImageXpress micro.

## C=C(C)[C@@H]1CCC(C)=C[C@H]1c1c(O)cc(CCCCC)cc1O [CBD, cannabidiol]
  U87MG glioblastoma cells viability: plays a role in reducing U87MG glioblastoma cells viability
